Source: patent publication US9289428B2, “Conveniently injectable or implantable sustained-release antioxidant formulations for therapies of ocular maladies or cancer” (RAMSCOR, INC., priority 2011, dated 2016)
Read-outs that look alike come from different tables or passages of the source.

Tests used:
[1] = Concentration of active agent in the rabbit eye after injection of a sustained release formulation into the vitreous; type: in vivo
Method: A 10 μL unit dose of either formulation 1 or formulation 2 was injected into the eyes of two rabbits, and the concentration of timolol or dexamethasone (dex) remaining in the eye tested at 7 days and 14 days thereafter. A 50 μL unit dose was injected into the vitreous of two rabbit's eyes, and the concentrations of active agent detected 7 days thereafter and averaged. Timalol was detected at 8.93 μg/mL; Dex was detected at 2.82 μg/mL.
A formulation consisting of 20% timolol maleate:10% Reservatrol:70% (1:1 ATEC:EA) was prepared by mixing. A unit dose of 50 μL was injected into the vitreous of two rabbit eyes, and Reservatrol was detected at 0.64 μg/mL (average) 7 days thereafter.

B16 melanoma tumors = experiment: Mouse B16 melanoma tumor model, single intratumoral implantation of sustained release antioxidant formulation; type: in vivo, C57 mouse
From the text: A mouse model was used to study the in vivo effect of sustained release antioxidant formulations on melanoma tumors. Mouse B16 melanoma Cell lines were obtained from NCI-Frederick, Md. C57 Mice were obtained from Simonsen Laboratories in Gilroy, Calif. Anesthesia was Ketamine/Xylazine/Acepromacine 1:1:0.03 mixture. […] cell suspension and 1×1 mm tumor pieces were preserved in 90% Fetal Bovine Serum and 10% DMSO in liquid nitrogen. Tumor was also maintained by in vivo serial subcutaneous passage.
Mice of either sex, weighing 16-18 grams, were anesthetized with the ketamine mixture. Subcutaneous implantation of the B16 suspension (100 ul of 2×10^6/ml) or solid tumor piece were performed in the back or nape of the mouse. Tumors were treated when tumor reached the average size of 6×6 mm in diameter and weighed approximately 0.6-0.8 grams in 7-10 days.
Treatment consisted of a single intratumoral implantation of semi-solid drug formulations. Each formulation consisted of 2 mg of active pharmaceutical ingredient (API): either Resveratrol, Astaxanthin, or Melatonin; in either tocopherol acetate (EA), benzyl benzoate (BB), or acetyltriethyl citrate (ATEC) excipients (all Sigma Chemical). The ratio of API and excipient was 80:20 by weight.

Work on `Oc1ccc(/C=C/c2cc(O)cc(O)c2)cc1` [Reservatrol, 3,5,4′-trihydroxy-trans-stilbene] yielded a concentration at 7 days ([1]; other: intravitreal injection, 50 μL unit dose of 20% timolol maleate:10% Reservatrol:70% (1:1 ATEC:EA) injected into vitreous of two rabbit eyes, 7 days thereafter, average, read-out: concentration of Reservatrol detected in the vitreous) of 640 ng/mL.

For `CC1=C(/C=C/C(C)=C/C=C/C(C)=C/C=C/C=C(C)/C=C/C=C(C)/C=C/C2=C(C)C(=O)[C@@H](O)CC2(C)C)C(C)(C)C[C@H](O)C1=O` [astaxanthin], the “time to complete clinical resolution of the tumor” value (B16 melanoma tumors; after the single treatment) was 5-7 weeks, the “time to peeling of overlying skin surface and beginning ulceration” value (B16 melanoma tumors; after the single treatment) was “about one” and the “tumor growth after treatment” value (B16 melanoma tumors; after the single treatment) was “stopped growing immediately”. The “condition and body weight of the animals” value (B16 melanoma tumors; until termination of the experiment on day 90) was “remained active and continued to gain weight”.

Work on `CC(C)(C)NC[C@H](O)COc1nsnc1N1CCOCC1` [Timalol, timolol] yielded a concentration at 7 days ([1]; rabbit, in vivo) of 8930 ng/mL.

For `C[C@@H]1C[C@H]2[C@@H]3CCC4=CC(=O)C=C[C@]4(C)[C@@]3(F)[C@@H](O)C[C@]2(C)[C@@]1(O)C(=O)CO` [Dex, dexamethasone], the concentration at 7 days ([1]; rabbit, in vivo) was 2820 ng/mL.
